Test results: the CheMixHub viscosity set
Values joined by “and” are separate entries in the source; they are usually repeats but may differ in a detail not shown here. Equal values may be shown once.

Assay: xn = mol fraction of the nth substance listed

O=C1CCCC1 + Nc1cccc(Cl)c1
viscosity [mPa·s], 100 kPa
Conditions	x2 = 0.0805	x2 = 0.1814	x2 = 0.2804	x2 = 0.3815	x2 = 0.4998	x2 = 0.5995	x2 = 0.6995	x2 = 0.7875	x2 = 0.9071
303.15 K	1.111	1.291	1.493	1.731	2.058	2.379	2.752	3.127	3.719
308.15 K	1.047	1.211	1.395	1.611	1.903	2.19	2.521	2.852	3.373
313.15 K	0.9683	1.117	1.282	1.474	1.734	1.987	2.278	2.568	3.023
318.15 K	0.9063	1.039	1.185	1.354	1.58	1.799	2.049	2.296	2.681

C1COCCN1 + O
293.15 K, 101 kPa
Conditions	viscosity [mPa·s]
x1 = 0.01898	1.327
x1 = 0.04739	1.963
x1 = 0.08285	3.082
x1 = 0.1083	4.064
x1 = 0.1739	7.227
x1 = 0.2362	10.22
x1 = 0.2817	11.61
x1 = 0.3018	11.87
x1 = 0.3247	12.17
x1 = 0.3476	12.13
x1 = 0.3543	12.09
x1 = 0.4548	10.43
x1 = 0.68	5.954

N=C(N)NCCC[C@H](N)C(=O)O + O
viscosity [mPa·s]
Conditions	100 kPa	101 kPa
293.15 K, x1 = 0.00045	1.015	–
293.15 K, x1 = 0.00135	1.038	–
293.15 K, x1 = 0.002247	1.06	–
293.15 K, x1 = 0.002695	1.071	–
293.15 K, x1 = 0.00359	1.094	–
293.15 K, x1 = 0.008927	–	1.295
293.15 K, x1 = 0.01246	–	1.431
298.15 K, x1 = 0.00135	0.9205	–
303.15 K, x1 = 0.00045	0.8065	–
303.15 K, x1 = 0.00135	0.8226	–
303.15 K, x1 = 0.001798	0.8306	–
303.15 K, x1 = 0.002247	0.8385	–
303.15 K, x1 = 0.003143	0.854	–
303.15 K, x1 = 0.00359	0.8618	0.8782
308.15 K, x1 = 0.003143	0.7665	–
313.15 K, x1 = 0.003143	0.6924	–
313.15 K, x1 = 0.005375	–	0.7504
313.15 K, x1 = 0.01246	–	0.9039
318.15 K, x1 = 0.002695	0.6262	–
323.15 K, x1 = 0.0018	–	0.5712
323.15 K, x1 = 0.00359	–	0.597
323.15 K, x1 = 0.005375	–	0.6242
323.15 K, x1 = 0.008927	–	0.6832
323.15 K, x1 = 0.01246	–	0.7455

O=C(CO)[C@@H](O)[C@H](O)[C@H](O)CO + O
Conditions	viscosity
293.15 K, 101 kPa, x1 = 0.011	1.18 mPa·s and 1.18 mPa·s
293.15 K, 101 kPa, x1 = 0.0244	1.84 mPa·s
293.15 K, 101 kPa, x1 = 0.0411	2.73 mPa·s
293.15 K, 101 kPa, x1 = 0.0625	5.02 mPa·s
293.15 K, 101 kPa, x1 = 0.0909	10.48 mPa·s and 11 mPa·s
293.15 K, 101 kPa, x1 = 0.13	31.43 mPa·s and 32 mPa·s
298.15 K, 101 kPa, x1 = 0.0005	0.934 mPa·s and 0.934 mPa·s
298.15 K, 101 kPa, x1 = 0.0007	0.9442 mPa·s and 0.9442 mPa·s
298.15 K, 101 kPa, x1 = 0.0009	0.9494 mPa·s and 0.9494 mPa·s
298.15 K, 101 kPa, x1 = 0.0018	0.9838 mPa·s and 0.9838 mPa·s
298.15 K, 101 kPa, x1 = 0.002	0.9772 mPa·s and 0.9772 mPa·s
298.15 K, 101 kPa, x1 = 0.00201	0.944 mPa·s
298.15 K, 101 kPa, x1 = 0.004	1.063 mPa·s
298.15 K, 101 kPa, x1 = 0.00623	1.094 mPa·s
298.15 K, 101 kPa, x1 = 0.011	1.02 mPa·s and 1 mPa·s
298.15 K, 101 kPa, x1 = 0.0244	1.59 mPa·s
298.15 K, 101 kPa, x1 = 0.0411	2.15 mPa·s
298.15 K, 101 kPa, x1 = 0.0625	4.17 mPa·s
298.15 K, 101 kPa, x1 = 0.0909	8 mPa·s and 8 mPa·s
298.15 K, 101 kPa, x1 = 0.13	24.3 mPa·s and 25 mPa·s
298.15 K, 101.3 kPa, x1 = 0.002	0.93 mPa·s
298.15 K, 101.3 kPa, x1 = 0.00359	0.969 mPa·s
298.15 K, 101.3 kPa, x1 = 0.007154	1.055 mPa·s
298.15 K, 101.3 kPa, x1 = 0.01069	1.15 mPa·s
298.15 K, 101.3 kPa, x1 = 0.01421	1.252 mPa·s
298.15 K, 101.3 kPa, x1 = 0.0177	1.362 mPa·s
298.15 K, 101.3 kPa, x1 = 0.02116	1.483 mPa·s
303.15 K, 100 kPa, x1 = 0.0009	0.8331 mPa·s
303.15 K, 100 kPa, x1 = 0.0027	0.8672 mPa·s
303.15 K, 100 kPa, x1 = 0.0045	0.9015 mPa·s
303.15 K, 100 kPa, x1 = 0.0063	0.9349 mPa·s
303.15 K, 101.3 kPa, x1 = 0.002	0.834 mPa·s
308.15 K, 101 kPa, x1 = 0.00201	0.7816 mPa·s
308.15 K, 101 kPa, x1 = 0.004	0.8663 mPa·s
308.15 K, 101 kPa, x1 = 0.00623	0.8883 mPa·s
308.15 K, 101 kPa, x1 = 0.007265	0.863 mPa·s
308.15 K, 101 kPa, x1 = 0.01082	0.928 mPa·s
308.15 K, 101 kPa, x1 = 0.011	0.93 mPa·s and 0.95 mPa·s
308.15 K, 101 kPa, x1 = 0.01435	1.01 mPa·s
308.15 K, 101 kPa, x1 = 0.02129	1.189 mPa·s
308.15 K, 101 kPa, x1 = 0.0244	1.27 mPa·s
308.15 K, 101 kPa, x1 = 0.02481	1.305 mPa·s
308.15 K, 101 kPa, x1 = 0.02821	1.394 mPa·s
308.15 K, 101 kPa, x1 = 0.04021	1.833 mPa·s
308.15 K, 101 kPa, x1 = 0.0411	1.96 mPa·s
308.15 K, 101 kPa, x1 = 0.0435	1.998 mPa·s
308.15 K, 101 kPa, x1 = 0.05099	2.372 mPa·s
308.15 K, 101 kPa, x1 = 0.0625	3.08 mPa·s
308.15 K, 101 kPa, x1 = 0.0909	5.99 mPa·s and 6.05 mPa·s
308.15 K, 101 kPa, x1 = 0.13	14.76 mPa·s and 14 mPa·s
308.15 K, 101.3 kPa, x1 = 0.002	0.753 mPa·s
313.15 K, 101 kPa, x1 = 0.011	0.77 mPa·s
313.15 K, 101 kPa, x1 = 0.0244	1.12 mPa·s
313.15 K, 101 kPa, x1 = 0.0411	1.52 mPa·s
313.15 K, 101 kPa, x1 = 0.0625	2.83 mPa·s
313.15 K, 101 kPa, x1 = 0.0909	4.51 mPa·s and 4.6 mPa·s
313.15 K, 101 kPa, x1 = 0.13	11.83 mPa·s and 11.8 mPa·s
313.15 K, 101.3 kPa, x1 = 0.002	0.685 mPa·s
318.15 K, 101 kPa, x1 = 0.007256	0.696 mPa·s
318.15 K, 101 kPa, x1 = 0.01084	0.758 mPa·s
318.15 K, 101 kPa, x1 = 0.02144	0.946 mPa·s
318.15 K, 101 kPa, x1 = 0.0244	0.99 mPa·s
318.15 K, 101 kPa, x1 = 0.02474	1.021 mPa·s
318.15 K, 101 kPa, x1 = 0.03978	1.469 mPa·s
318.15 K, 101 kPa, x1 = 0.0411	1.24 mPa·s
318.15 K, 101 kPa, x1 = 0.05983	2.055 mPa·s
318.15 K, 101 kPa, x1 = 0.0625	2.3 mPa·s
318.15 K, 101 kPa, x1 = 0.0909	3.65 mPa·s
318.15 K, 101 kPa, x1 = 0.13	9.57 mPa·s and 8 mPa·s
318.15 K, 101.3 kPa, x1 = 0.002	0.625 mPa·s
323.15 K, 101 kPa, x1 = 0.011	0.69 mPa·s
323.15 K, 101 kPa, x1 = 0.0244	0.92 mPa·s
323.15 K, 101 kPa, x1 = 0.0411	1.29 mPa·s
323.15 K, 101 kPa, x1 = 0.0625	2.04 mPa·s
323.15 K, 101 kPa, x1 = 0.0909	3.4 mPa·s
323.15 K, 101 kPa, x1 = 0.13	7.81 mPa·s and 7.5 mPa·s
